Reference: US10662195B2, “Protein kinase conjugates and inhibitors” (Celgene Avilomics Research, Inc., priority 2009, dated 2020)

How the values were obtained:
FLT3 = target: T1, FLT3 (Homo sapiens, UniProt P36888); assay: FLT-3 Omnia continuous-read kinase assay; type: biochemical; conditions: 30 min pre-incubation, [ATP]=500 μM; read-out: IC50_APP FLT3
T1 construct: purchased PV3182
T1 sequence (P36888 27-993): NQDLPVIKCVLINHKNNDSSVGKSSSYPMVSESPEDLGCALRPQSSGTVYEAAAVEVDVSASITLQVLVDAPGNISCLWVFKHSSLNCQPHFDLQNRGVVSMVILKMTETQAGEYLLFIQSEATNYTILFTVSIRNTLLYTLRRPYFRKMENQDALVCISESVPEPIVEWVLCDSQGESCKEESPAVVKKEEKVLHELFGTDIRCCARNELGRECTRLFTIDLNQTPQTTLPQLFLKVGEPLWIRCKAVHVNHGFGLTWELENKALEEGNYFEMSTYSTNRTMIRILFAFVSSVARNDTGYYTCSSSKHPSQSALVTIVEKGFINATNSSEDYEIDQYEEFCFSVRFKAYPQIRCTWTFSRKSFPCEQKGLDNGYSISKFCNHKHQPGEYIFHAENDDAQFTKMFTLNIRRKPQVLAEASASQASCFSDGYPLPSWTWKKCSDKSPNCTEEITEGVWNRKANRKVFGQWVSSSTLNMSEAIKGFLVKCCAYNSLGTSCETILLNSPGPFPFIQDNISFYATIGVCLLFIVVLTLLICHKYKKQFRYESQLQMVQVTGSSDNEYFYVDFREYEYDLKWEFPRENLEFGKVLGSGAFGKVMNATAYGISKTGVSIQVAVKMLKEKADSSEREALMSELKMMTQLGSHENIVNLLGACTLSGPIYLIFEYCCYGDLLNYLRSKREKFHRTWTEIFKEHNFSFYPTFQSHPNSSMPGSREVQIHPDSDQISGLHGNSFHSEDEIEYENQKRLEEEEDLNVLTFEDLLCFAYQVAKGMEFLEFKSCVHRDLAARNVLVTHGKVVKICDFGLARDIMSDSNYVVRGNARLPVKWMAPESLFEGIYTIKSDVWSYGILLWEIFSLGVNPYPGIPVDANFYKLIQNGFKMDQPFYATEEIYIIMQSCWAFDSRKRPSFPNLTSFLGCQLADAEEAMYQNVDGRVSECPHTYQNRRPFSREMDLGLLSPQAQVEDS
Procedure: (§1) A. KDR and FLT-3 Omnia Assay for Potency Assessment:
(§2) The protocol below describes a continuous-read kinase assay to measure inherent potency of Avila Therapeutics' compounds against active KDR and FLT-3 enzymes. The assay was performed substantially as described by the vendor (Invitrogen, Carlsbad, Calif.; http://www.invitrogen.com/content.cfm?pageid=11338.)
(§3) Briefly, 10× stocks of KDR from Invitrogen or BPS Bioscience (PV3660 or 40301) and FLT-3 (PV3182) enzymes, 1.13×ATP (AS001A) and Y9-Sox or Y12-Sox peptide substrates (KCZ1001) were prepared in 1× kinase reaction buffer consisting of 20 mM Tris, pH 7.5, 5 mM MgCl2, 1 mM EGTA, 5 mM β-glycerophosphate, 5% glycerol (10× stock, KB002A) and 0.2 mM DTT (DS001A). 5 μL of enzyme were pre-incubated in a Corning (#3574) 384-well, white, non-binding surface microtiter plate (Corning, N.Y.) for 30 min at 27° C. with a 0.5 μL volume of 50% DMSO and serially diluted compounds prepared in 50% DMSO. Kinase reactions were started with the addition of 45 μL of the ATP/Y9 or Y5-Sox peptide substrate mix and monitored every 30-90 seconds for 60 minutes at λex360/λem485 in a Synergy^4 plate reader from BioTek (Winooski, Vt.). At the conclusion of each assay, progress curves from each well were examined for linear reaction kinetics and fit statistics (R^2, 95% confidence interval, absolute sum of squares). Initial velocity (0 minutes to 20+ minutes) from each reaction was determined from the slope of a plot of relative fluorescence units vs time (minutes) and then plotted against inhibitor concentration to estimate IC50 from Log [Inhibitor] vs Response, Variable Slope model in GraphPad Prism from GraphPad Software (San Diego, Calif.).
[FLT-3]=15 nM, [ATP]=500 μM and [Y5-Sox peptide]=10 μM (ATP KMapp=470 μM)
(§4) The reported IC50_APP and IC50 values are in units of nM.

KDR [1] = target: T2, KDR (Homo sapiens, UniProt P35968); assay: Mass spectral analysis of tryptic digest of KDR after incubation with compound; type: binding; conditions: KDR 40 pmols, compound 395 pmols, 3 hrs, MALDI
T2 sequence (P35968 20-1356): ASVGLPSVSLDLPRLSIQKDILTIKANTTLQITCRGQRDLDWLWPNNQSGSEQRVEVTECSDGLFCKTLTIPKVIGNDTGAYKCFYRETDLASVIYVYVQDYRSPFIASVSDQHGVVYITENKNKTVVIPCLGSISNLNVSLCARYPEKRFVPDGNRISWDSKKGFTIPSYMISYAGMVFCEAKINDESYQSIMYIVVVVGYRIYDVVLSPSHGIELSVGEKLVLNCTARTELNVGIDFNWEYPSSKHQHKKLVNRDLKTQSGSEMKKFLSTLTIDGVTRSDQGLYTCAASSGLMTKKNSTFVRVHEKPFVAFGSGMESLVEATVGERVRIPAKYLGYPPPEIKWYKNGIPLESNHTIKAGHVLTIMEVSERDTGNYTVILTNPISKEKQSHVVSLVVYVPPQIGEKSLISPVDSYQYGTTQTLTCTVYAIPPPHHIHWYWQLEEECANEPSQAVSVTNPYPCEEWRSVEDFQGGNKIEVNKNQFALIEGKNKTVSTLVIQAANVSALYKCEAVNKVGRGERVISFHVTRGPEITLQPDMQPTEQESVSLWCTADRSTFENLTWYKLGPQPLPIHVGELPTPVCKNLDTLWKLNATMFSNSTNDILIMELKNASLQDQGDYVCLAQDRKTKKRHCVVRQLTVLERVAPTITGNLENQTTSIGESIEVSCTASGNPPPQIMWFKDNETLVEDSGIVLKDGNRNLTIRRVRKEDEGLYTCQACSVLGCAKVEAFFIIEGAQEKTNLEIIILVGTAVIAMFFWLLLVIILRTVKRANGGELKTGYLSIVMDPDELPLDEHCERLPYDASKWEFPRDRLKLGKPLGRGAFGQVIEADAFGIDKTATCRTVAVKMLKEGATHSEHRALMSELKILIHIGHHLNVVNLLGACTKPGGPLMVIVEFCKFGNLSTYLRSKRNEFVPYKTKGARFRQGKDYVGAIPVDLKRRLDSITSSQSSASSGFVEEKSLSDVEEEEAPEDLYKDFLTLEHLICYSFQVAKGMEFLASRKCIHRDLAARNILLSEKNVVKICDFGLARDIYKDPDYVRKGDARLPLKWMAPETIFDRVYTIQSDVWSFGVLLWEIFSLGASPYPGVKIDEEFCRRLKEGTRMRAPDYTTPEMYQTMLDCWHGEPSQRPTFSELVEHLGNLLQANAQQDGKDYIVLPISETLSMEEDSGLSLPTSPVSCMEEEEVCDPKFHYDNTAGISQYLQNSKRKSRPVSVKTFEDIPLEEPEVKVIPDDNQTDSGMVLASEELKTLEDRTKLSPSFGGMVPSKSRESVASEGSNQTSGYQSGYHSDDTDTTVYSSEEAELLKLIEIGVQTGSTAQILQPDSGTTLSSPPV
Procedure: KDR kinase (40 pmols) was incubated with II-2 (395 pmols) for 3 hrs at 10× access prior to tryptic digestion. Iodoacetamide was used as the alkylating agent after compound incubation. For tryptic digests a 5 ul aliquot (6.7 pmols) was diluted with 10 ul of 0.1% TFA prior to micro C18 Zip Tipping directly onto the MALDI target using alpha cyano-4-hydroxy cinnamic acid as the matrix (5 mg/ml in 0.1% TFA:Acetonitrile 50:50).
For tryptic digests the instrument was set in Reflectron mode with a pulsed extraction setting of 1800. Calibration was done using the Laser Biolabs Pep Mix standard (1046.54, 1296.69, 1672.92, 2093.09, 2465.20). For CID/PSD analysis the peptide was selected using cursors to set ion gate timing and fragmentation occurred at a laser power about 20% higher and He was used as the collision gas for CID. Calibration for fragments was done using the P14R fragmentation calibration for the Curved field Reflectron.

KDR [2] = target: T2, KDR; assay: KDR Omnia continuous-read kinase assay; type: biochemical; parameters: purchased Invitrogen or BPS Bioscience PV3660 or 40301; conditions: 30 min pre-incubation; read-out: IC50_APP KDR
Procedure: as §1, §2
as §3, with “Calif.). […]” for “Calif.).”
as §4

C=CC(=O)N1CCC(Sc2nc(Nc3ncc(C#N)s3)cc(N3CCN(C)CC3)n2)CC1 [II-2, 2-(2-(1-Acryloylpiperidin-4-ylthio)-6-(4-methylpiperazin-1-yl)pyrimidin-4-ylamino)thiazole-5-carbonitrile]
IC50 (FLT3): 0.000508 µM
MH+ of compound-modified tryptic peptide (ICDFGLAR) of KDR (KDR [1]): 1364.63
IC50 (KDR [2]): 0.0514 µM
